{"source": "patent US20210379066A1", "about": "“COMBINATIONS OF POSITIVE ALLOSTERIC MODULATORS AND NICOTINIC ACETYLCHOLINE RECEPTOR AGONISTS FOR TREATING OCULAR CONDITIONS” (Oyster Point Pharma, Inc., priority 2018, published 2021)", "format_in_all_cases": "cell-based", "settings_in_all_cases": "versus ACh response", "key": {"[1]": {"target": "T1, human nAChR alpha7 (Homo sapiens, UniProt P36544)", "T1 construct": "expressed in transfected cells; host or cells: Xenopus laevis oocytes (cDNA injection)", "T1 sequence (P36544 23-502)": "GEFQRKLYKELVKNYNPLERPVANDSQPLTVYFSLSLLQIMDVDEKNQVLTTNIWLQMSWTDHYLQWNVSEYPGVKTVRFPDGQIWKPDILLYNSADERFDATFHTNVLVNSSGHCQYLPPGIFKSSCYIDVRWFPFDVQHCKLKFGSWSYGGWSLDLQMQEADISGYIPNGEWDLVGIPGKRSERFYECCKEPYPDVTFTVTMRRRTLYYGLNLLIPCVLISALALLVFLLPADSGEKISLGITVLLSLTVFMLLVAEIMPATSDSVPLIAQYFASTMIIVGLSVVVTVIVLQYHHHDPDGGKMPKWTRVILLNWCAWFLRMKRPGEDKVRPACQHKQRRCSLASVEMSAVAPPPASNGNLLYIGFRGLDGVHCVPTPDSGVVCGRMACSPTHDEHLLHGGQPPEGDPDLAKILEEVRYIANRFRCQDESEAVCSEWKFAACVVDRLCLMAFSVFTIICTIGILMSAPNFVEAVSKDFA", "assay": "Agonist activity, two-electrode voltage clamp in Xenopus oocytes (Examples 2 and 5)", "method": "(§1) All experiments were carried out at human nAChRs expressed in Xenopus oocytes using the method of cDNA expression. Xenopus oocytes were prepared and injected using standard procedures.\n(§2) Briefly, ovaries were harvested from Xenopus Laevis females that have been deeply anesthetized by cooling at 4° C. and Tricaine methanesulfonate (MS-222 at a concentration of 150 mg/L) in sodium bicarbonate (300 mg/L). Once anesthetized the animal was decapitated and pithed following the rules of animal rights from the Geneva canton. A small piece of ovary was isolated for immediate preparation while the remaining part was placed at 4° C. in a sterile Barth solution containing in mM NaCl 88, KCl 1, NaHCO32.4, HEPES 10, MgSO4.7H2O 0.82, Ca(NO3)2.4H2O 0.33, CaCl2.6H2O 0.41, at pH 7.4, and supplemented with 20 μg/ml of kanamycin, 100 unit/ml penicillin. All recordings were performed at 18° C. and cells superfused with OR2 medium containing in mM: NaCl 88, KCl 2.5, HEPES 5, CaCl2.2H2O 1.8, MgCl2.6H2O 1, pH 7.4.\n(§3) Currents evoked by ACh or other agonists were recorded using an automated process equipped with standard two-electrode voltage-clamp configuration (TEVC). Data were captured and analyzed using a HiQScreen proprietary data acquisition and analysis software running under Matlab (Mathworks Inc.).\n(§4) See Example 1. […] The test concentration of acetylcholine chloride was 1280 micromolar.\n(§5) Injections of cDNAs encoding for the human alpha3beta4, alpha3alpha5beta4, alpha4beta2, and alpha7 were performed in at least 95 oocytes were performed using a proprietary automated injection and receptor expression examined at least two days later. Oocytes were poked with two electrodes and their membrane potential maintained, unless indicated, at −80 mV throughout the experiment.\n(§6) A protocol to determine agonistic activity in the oocytes expressing the nAChRs was developed. The cells were exposed to a series of increasing concentrations of a compound agonist for 10 seconds each at two minute intervals. The current evoked from exposure to the agonist at each concentration was recorded. For oocytes expressing alpha7 nAChRs, exposure to the agonist was reduced to 5 seconds. This process was repeated for each agonist tested against each type of nAChR expressing cell.\n(§7) To evaluate the agonistic properties of compound 1 hemi-galactarate dihydrate a protocol of brief exposures to a series of growing concentrations of compound 1 hemi-galactarate dihydrate was used.\n(§8) Agonist Preparation: See Example 1. […] The test concentration of acetylcholine chloride was 1280 micromolar.\nas §5, with “Experimental Procedures: Injections” for “Injections”, “alpha4beta2, alpha4alpha6beta2,” for “alpha4beta2,”, “oocytes” for “oocytes were performed”, “injection device. Cellular” for “injection and”, “expression was” for “expression”\nas §6, with “developed. Oocytes expressing a nAChR subtype were exposed to a brief test pulse of acetylcholine (1280 micromolar) while the holding current and response was evaluated. Cells displaying robust currents were washed for 90 seconds.” for “developed.”, “were then” for “were”, “nAChR” for “compound”, “intervals. The nAChR agonist test concentrations were 0.1, 0.3, 1, 3, 10, 30, 100, 300 (micromolar).” for “intervals.”"}, "[2]": {"target": "T2, human nAChR alpha4beta2 (Homo sapiens, UniProt P17787+P43681)", "T2 construct": "expressed in transfected cells; host or cells: Xenopus laevis oocytes (cDNA injection)", "T2 sequence (P43681 29-627 limits assumed)": "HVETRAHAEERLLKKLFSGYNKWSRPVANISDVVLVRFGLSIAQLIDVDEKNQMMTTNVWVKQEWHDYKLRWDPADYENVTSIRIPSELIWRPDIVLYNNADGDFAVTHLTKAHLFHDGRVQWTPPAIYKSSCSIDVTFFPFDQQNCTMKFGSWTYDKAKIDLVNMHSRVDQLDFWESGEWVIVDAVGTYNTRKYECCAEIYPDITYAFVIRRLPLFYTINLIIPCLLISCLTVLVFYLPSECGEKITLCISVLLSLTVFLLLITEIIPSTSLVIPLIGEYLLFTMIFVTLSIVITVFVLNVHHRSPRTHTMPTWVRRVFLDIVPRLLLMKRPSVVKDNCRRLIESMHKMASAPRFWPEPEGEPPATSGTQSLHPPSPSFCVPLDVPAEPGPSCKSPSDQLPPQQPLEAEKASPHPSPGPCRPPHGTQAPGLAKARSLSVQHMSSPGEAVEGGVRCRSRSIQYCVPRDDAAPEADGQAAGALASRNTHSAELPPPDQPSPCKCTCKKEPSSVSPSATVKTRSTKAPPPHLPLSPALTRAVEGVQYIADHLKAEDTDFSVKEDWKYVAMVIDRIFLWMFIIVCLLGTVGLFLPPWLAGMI", "T2 sequence (P17787 26-502)": "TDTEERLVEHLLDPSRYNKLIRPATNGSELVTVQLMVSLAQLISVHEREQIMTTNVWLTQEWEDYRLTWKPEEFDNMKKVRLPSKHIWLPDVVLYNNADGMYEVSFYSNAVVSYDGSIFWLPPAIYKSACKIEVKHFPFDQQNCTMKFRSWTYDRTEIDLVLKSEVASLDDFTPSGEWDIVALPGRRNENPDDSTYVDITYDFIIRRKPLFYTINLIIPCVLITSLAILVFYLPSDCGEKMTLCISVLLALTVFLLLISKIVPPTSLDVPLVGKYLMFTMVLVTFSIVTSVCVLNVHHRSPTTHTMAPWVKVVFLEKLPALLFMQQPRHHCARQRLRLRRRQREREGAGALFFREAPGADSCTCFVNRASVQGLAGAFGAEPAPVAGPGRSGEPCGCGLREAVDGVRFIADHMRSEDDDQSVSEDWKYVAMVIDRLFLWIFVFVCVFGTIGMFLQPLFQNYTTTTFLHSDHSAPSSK", "assay": "Agonist activity, two-electrode voltage clamp in Xenopus oocytes (Examples 2 and 5)", "method": "as §1, §2, §3, §4, §5, §6, §7, §8\nas §5, with “Experimental Procedures: Injections” for “Injections”, “alpha4beta2, alpha4alpha6beta2,” for “alpha4beta2,”, “oocytes” for “oocytes were performed”, “injection device. Cellular” for “injection and”, “expression was” for “expression”\nas §6, with “developed. Oocytes expressing a nAChR subtype were exposed to a brief test pulse of acetylcholine (1280 micromolar) while the holding current and response was evaluated. Cells displaying robust currents were washed for 90 seconds.” for “developed.”, “were then” for “were”, “nAChR” for “compound”, “intervals. The nAChR agonist test concentrations were 0.1, 0.3, 1, 3, 10, 30, 100, 300 (micromolar).” for “intervals.”"}, "[3]": {"target": "T3, human nAChR alpha3beta4 (Homo sapiens, UniProt P30926+P32297)", "T3 construct": "expressed in transfected cells; host or cells: Xenopus laevis oocytes (cDNA injection)", "T3 sequence (P32297 32-505)": "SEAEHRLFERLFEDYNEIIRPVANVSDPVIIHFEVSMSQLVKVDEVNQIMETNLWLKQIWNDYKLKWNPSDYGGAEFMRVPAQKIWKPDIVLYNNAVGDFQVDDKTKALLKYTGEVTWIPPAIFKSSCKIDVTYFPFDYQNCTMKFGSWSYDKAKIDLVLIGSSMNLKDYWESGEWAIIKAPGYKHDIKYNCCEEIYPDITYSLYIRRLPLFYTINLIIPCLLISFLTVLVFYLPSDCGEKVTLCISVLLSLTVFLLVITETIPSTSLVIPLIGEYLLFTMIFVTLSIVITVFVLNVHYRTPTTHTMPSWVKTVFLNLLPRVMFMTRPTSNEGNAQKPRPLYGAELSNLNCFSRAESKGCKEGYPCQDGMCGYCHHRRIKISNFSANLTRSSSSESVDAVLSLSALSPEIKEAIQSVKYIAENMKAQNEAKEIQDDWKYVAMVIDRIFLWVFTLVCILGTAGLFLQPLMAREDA", "T3 sequence (P30926 22-498)": "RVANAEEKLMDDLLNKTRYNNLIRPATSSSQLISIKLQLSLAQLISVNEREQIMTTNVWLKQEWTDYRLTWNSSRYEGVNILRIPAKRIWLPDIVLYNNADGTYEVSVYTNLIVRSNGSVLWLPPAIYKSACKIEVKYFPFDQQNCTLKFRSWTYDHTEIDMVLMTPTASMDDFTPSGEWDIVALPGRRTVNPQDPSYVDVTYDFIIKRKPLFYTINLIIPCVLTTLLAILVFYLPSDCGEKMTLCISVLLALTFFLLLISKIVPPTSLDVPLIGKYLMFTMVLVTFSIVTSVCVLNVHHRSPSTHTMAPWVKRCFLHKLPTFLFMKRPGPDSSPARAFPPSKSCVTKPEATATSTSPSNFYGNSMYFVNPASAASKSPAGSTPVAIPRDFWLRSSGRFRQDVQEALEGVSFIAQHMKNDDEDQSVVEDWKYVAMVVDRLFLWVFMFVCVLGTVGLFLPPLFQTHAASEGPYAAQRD", "assay": "Agonist activity, two-electrode voltage clamp in Xenopus oocytes (Examples 2 and 5)", "method": "as §1, §2, §3, §4, §5, §6, §7, §8\nas §5, with “Experimental Procedures: Injections” for “Injections”, “alpha4beta2, alpha4alpha6beta2,” for “alpha4beta2,”, “oocytes” for “oocytes were performed”, “injection device. Cellular” for “injection and”, “expression was” for “expression”\nas §6, with “developed. Oocytes expressing a nAChR subtype were exposed to a brief test pulse of acetylcholine (1280 micromolar) while the holding current and response was evaluated. Cells displaying robust currents were washed for 90 seconds.” for “developed.”, “were then” for “were”, “nAChR” for “compound”, “intervals. The nAChR agonist test concentrations were 0.1, 0.3, 1, 3, 10, 30, 100, 300 (micromolar).” for “intervals.”"}, "[4]": {"target": "T4, human nAChR alpha3alpha5beta4 (Homo sapiens, UniProt P30532+P30926+P32297)", "T4 construct": "expressed in transfected cells; host or cells: Xenopus laevis oocytes (cDNA injection)", "T4 sequence (P32297 32-505)": "as the sequence (P32297 32-505) above", "T4 sequence (P30532 23-468)": "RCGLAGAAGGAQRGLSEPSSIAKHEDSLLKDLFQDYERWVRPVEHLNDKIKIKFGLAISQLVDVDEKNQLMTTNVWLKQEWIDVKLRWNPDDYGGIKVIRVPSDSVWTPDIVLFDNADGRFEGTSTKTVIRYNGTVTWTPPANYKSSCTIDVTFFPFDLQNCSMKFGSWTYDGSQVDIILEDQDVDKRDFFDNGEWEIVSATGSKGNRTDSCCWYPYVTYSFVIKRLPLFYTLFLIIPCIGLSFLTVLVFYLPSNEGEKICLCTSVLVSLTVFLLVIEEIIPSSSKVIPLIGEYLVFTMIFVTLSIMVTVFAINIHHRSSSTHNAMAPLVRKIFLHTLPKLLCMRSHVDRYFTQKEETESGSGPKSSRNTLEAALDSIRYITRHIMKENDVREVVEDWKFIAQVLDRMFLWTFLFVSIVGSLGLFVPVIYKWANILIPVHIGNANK", "T4 sequence (P30926 22-498)": "as the sequence (P30926 22-498) above", "assay": "Agonist activity, two-electrode voltage clamp in Xenopus oocytes (Examples 2 and 5)", "method": "as §1, §2, §3, §4, §5, §6, §7, §8\nas §5, with “Experimental Procedures: Injections” for “Injections”, “alpha4beta2, alpha4alpha6beta2,” for “alpha4beta2,”, “oocytes” for “oocytes were performed”, “injection device. Cellular” for “injection and”, “expression was” for “expression”\nas §6, with “developed. Oocytes expressing a nAChR subtype were exposed to a brief test pulse of acetylcholine (1280 micromolar) while the holding current and response was evaluated. Cells displaying robust currents were washed for 90 seconds.” for “developed.”, “were then” for “were”, “nAChR” for “compound”, “intervals. The nAChR agonist test concentrations were 0.1, 0.3, 1, 3, 10, 30, 100, 300 (micromolar).” for “intervals.”"}, "[5]": {"target": "T5, human nAChR alpha4alpha6beta2 (Homo sapiens, UniProt P17787+P43681+Q15825)", "T5 construct": "expressed in transfected cells; host or cells: Xenopus laevis oocytes (cDNA injection)", "T5 sequence (P43681 29-627 limits assumed)": "as the sequence (P43681 29-627 limits assumed) above", "T5 sequence (Q15825 26-494)": "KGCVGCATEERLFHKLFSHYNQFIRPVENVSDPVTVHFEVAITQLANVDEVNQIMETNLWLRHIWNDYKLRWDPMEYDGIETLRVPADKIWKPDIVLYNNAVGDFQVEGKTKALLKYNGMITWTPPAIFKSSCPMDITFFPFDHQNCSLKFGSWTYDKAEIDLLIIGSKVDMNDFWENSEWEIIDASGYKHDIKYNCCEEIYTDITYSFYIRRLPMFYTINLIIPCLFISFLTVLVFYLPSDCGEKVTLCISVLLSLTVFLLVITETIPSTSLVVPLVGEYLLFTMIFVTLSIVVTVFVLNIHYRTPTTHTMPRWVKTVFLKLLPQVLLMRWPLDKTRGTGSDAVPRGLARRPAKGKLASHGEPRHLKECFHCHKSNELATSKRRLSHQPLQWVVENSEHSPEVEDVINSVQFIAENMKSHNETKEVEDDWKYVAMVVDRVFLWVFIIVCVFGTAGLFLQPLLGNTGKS", "T5 sequence (P17787 26-502)": "as the sequence (P17787 26-502) above", "assay": "Agonist activity, two-electrode voltage clamp in Xenopus oocytes (Example 5)", "method": "as §1, §2, §3, §8\nas §5, with “Experimental Procedures: Injections” for “Injections”, “alpha4beta2, alpha4alpha6beta2,” for “alpha4beta2,”, “oocytes” for “oocytes were performed”, “injection device. Cellular” for “injection and”, “expression was” for “expression”\nas §6, with “developed. Oocytes expressing a nAChR subtype were exposed to a brief test pulse of acetylcholine (1280 micromolar) while the holding current and response was evaluated. Cells displaying robust currents were washed for 90 seconds.” for “developed.”, “were then” for “were”, “nAChR” for “compound”, “intervals. The nAChR agonist test concentrations were 0.1, 0.3, 1, 3, 10, 30, 100, 300 (micromolar).” for “intervals.”"}}, "data": [{"smiles": "C(=C\\[C@H]1CCNC1)/c1cncnc1", "note": "[Compound 1, (R)-5-((E)-2-pyrrolidin-3-ylvinyl)pyrimidine]", "values": [{"measurement": "agonist character", "setting": "[1]", "result": "weak partial agonist"}, {"measurement": "agonist character", "setting": "[2]", "result": "full agonist"}, {"measurement": "agonist character", "setting": "[3]", "result": "full agonist"}, {"measurement": "agonist character", "setting": "[4]", "result": "full agonist"}, {"measurement": "agonist character", "setting": "[5]", "result": "full agonist"}]}]}
